What all share (format): cell-based, human
One assay deals with phosphorylated p38. In words: Immunostaining of phosphorylated p38 in treated neurospheres (Experimental Example 3). The conditions noted are these: 201B7 neurospheres; 10 μM DAPT, 1 μM Compound 34, 24 hours; vs control. The protocol: Neurospheres derived from 201B7 cells were treated with various γ-secretase inhibitors in the same manner as in Experimental Example 1. As the γ-secretase inhibitor, DAPT, Compound 34, L-685,458, LY411575, Sulindac, and Compound E were used at the same concentrations as in Experimental Example 1. Subsequently, each neurosphere was fixed with paraformaldehyde and subjected to immunostaining of phosphorylated p38.
FIG. 5 is a graph showing the results obtained by quantifying the amount of the phosphorylated p38 in the neurosphere which had been treated with each of the γ-secretase inhibitors. In FIG. 5, “Ctl” indicates the result obtained from the control, “DAPT” indicates the result obtained by the DAPT treatment, “C. 34” indicates the result obtained by Compound 34 treatment, “L-685” indicates the result obtained by the L-685,458 treatment, “LY” indicates the result obtained by the LY411575 treatment, “Suli” indicates the result obtained by the Sulindac treatment, and “Com. E” indicates the result obtained by the Compound E treatment.

A further assay concerns phosphorylated CDC25B. In words: Phosphorylated CDC25B in nerve cells after inducing differentiation (Experimental Example 12). The conditions noted are these: 201B7 neurospheres treated 24 hours, differentiated 14 days; compared with the untreated case. The protocol:
Neurospheres were treated with DAPT or Compound 34, and the amount of phosphorylated CDC25B after inducing differentiation into nerve cells was examined.
Neurospheres derived from 201B7 cells, which are cells of a human iPS cell line, were prepared in the same manner as in Experimental Example 1. Subsequently, each neurosphere was cultured for 24 hours in the presence of each of DAPT and Compound 34. DAPT and Compound 34 were used at the same concentrations as in Experimental Example 1.
Subsequently, each neurosphere was seeded on a 48-well chamber slide (IWAKI & CO., LTD.) coated with poly-L-ornithine/fibronectin, cultured for 14 days in a culture medium containing no growth factor at 37° C. in an environment of 95% air and 5% CO2, and differentiated into nerve cells.
Subsequently, each of the obtained nerve cells was fixed with 4% paraformaldehyde and subjected to immunostaining of each of βIII-tubulin, which is a nerve cell marker, and phosphorylated CDC25B.
FIGS. 20(a) to 20(f) show fluorescence photomicrographs showing the representative results of immunostaining. The scale bar is 100 μm. […]

The next assay has as its system p38. Briefly: Expression level of p38 by RNA-seq (Experimental Example 3). The conditions noted are these: 201B7 neurospheres, vs control. An excerpt:
FIG. 6 is a graph showing the results obtained by treating the neurosphere derived from 201B7 cells with each of DAPT and Compound 34, carrying out the RNA-seq analysis, and quantifying the expression level of p38 based on transcriptome data.

Results on 2 compounds are retold here after patent publication US20240252546A1, “NEURITE OUTGROWTH PROMOTION KIT AND USE THEREFOR” (KEIO UNIVERSITY, priority 2021, published 2024).

As for `O=C1Nc2ccccc2C(c2ccccc2)=N[C@@H]1NC(=O)[C@H](c1ccc(F)cc1)[C@@H](CO)c1ccc(F)c(F)c1` [Compound 34], the “amount of phosphorylated p38 in the neurosphere” value with phosphorylated p38 is given as “significantly increased”. Also, in the assay on phosphorylated CDC25B, the “amount of phosphorylated CDC25B after inducing differentiation into nerve cells” value is “increased”. Moreover, the “expression level of p38” value with p38 was “not increased”.

As for `C[C@H](NC(=O)Cc1cc(F)cc(F)c1)C(=O)N[C@H](C(=O)OC(C)(C)C)c1ccccc1` [DAPT], the “amount of phosphorylated p38 in the neurosphere” value in the assay on phosphorylated p38 is recorded as “significantly increased”. Also, the “amount of phosphorylated CDC25B after inducing differentiation into nerve cells” value in the assay with phosphorylated CDC25B is listed as “increased”. Besides, the “expression level of p38” value in the assay with p38 is on record as “not increased”.
